In assay [1] the target is T1, 17-beta-hydroxysteroid dehydrogenase type 1 (Homo sapiens) (UniProt P14061).
T1 sequence (whole entry): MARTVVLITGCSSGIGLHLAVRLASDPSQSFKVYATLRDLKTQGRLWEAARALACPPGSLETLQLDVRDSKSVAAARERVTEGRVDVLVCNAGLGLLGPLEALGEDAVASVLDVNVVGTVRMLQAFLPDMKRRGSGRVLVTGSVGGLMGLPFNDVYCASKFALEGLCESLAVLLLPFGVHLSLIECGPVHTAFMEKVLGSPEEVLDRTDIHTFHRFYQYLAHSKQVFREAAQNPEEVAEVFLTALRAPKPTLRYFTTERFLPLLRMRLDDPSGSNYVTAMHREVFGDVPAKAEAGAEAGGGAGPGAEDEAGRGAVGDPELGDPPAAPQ
Put plainly: Inhibition of 17beta-HSD1 expressed in HEK 293 cells assessed as conversion of [14C]estrone to [14C]estradiol at 0.1 uM using NADH. The assay is classed as cell-based. As to conditions: HEK293.

The target of assay [2] is T2, 17-beta-hydroxysteroid dehydrogenase type 1 (Homo sapiens, UniProt P14061).
T2 sequence (P14061 whole entry): T1 sequence (whole entry)
Kind of assay: Inhibition of 17beta-HSD1 expressed in HEK 293 cells assessed as conversion of [14C]estrone to [14C]estradiol using NADPH. The assay is classed as cell-based, HEK293.

In the case of `C[C@]12CC[C@@H]3c4ccc(O)cc4CC[C@H]3[C@@H]1C[C@H](CCCCCCCCCCCCCc1cc(N)cc(CC(=O)O)c1)[C@@H]2O`, the inhibition in assay [1] was 27%.

Consider `C[C@]12CC[C@@H]3c4ccc(O)cc4CC[C@H]3[C@@H]1C[C@H](CCCCCCCCCCCCCc1cccc(CC(=O)O)c1)[C@@H]2O`, for which the inhibition in assay [1] came out at 49%.

As to `C[C@]12CC[C@@H]3c4ccc(O)cc4CC[C@H]3[C@@H]1C[C@H](CCCCCCCCC(=O)OC[C@H]1O[C@@H](n3cnc4c(N)ncnc43)[C@H](O)[C@@H]1O)[C@@H]2O`, the IC50 in assay [2] came to 8 nM.

These data come from ChEMBL document CHEMBL1154469, “Design and synthesis of bisubstrate inhibitors of type 1 17beta-hydroxysteroid dehydrogenase: overview and perspectives” (Eur J Med Chem, 2008).
